Experimental data taken from patent publication US8552013B2, “Heterocyclic compounds based on N6-substituted adenine, methods of their preparation, their use for preparation of drugs, cosmetic preparations and growth regulators, pharmaceutical preparations, cosmetic preparations and growth regulators containing these compounds” (USTAV Experimentalni Botaniky Akademie Ved Ceske Republiky, priority 2001, dated 2013).
Like-named read-outs stand apart in the source and are kept apart here.

Tests used:
[1] = tested on: promyelocytic HL-60 leukemia; assay: Calcein AM cytotoxicity, HL60; type: cell-based, human; settings: Homo sapiens, read-out: IC 50, HL60
Source text: (§1) One of the parameters used, as the basis for cytotoxicity assays, is the metabolic activity of viable cells. For example, a microtiter assay, which uses the Calcein AM, is now widely used to quantitate cell proliferation and cytotoxicity. For instance, this assay is used in drug screening programs and in chemosensitivity testing. Because only metabolically active cells cleave Calcein AM, these assays detect viable cells exclusively. The quantity of reduced Calcein AM corresponds to the number of vital cells in the culture.
(§2) The cells were maintained in Nunc/Corning 80 cm^2 plastic tissue culture flasks and cultured in cell culture medium (DMEM with 5 g/l glucose, 2 mM glutamine, 100 U/ml penicillin, 100 μg/ml streptomycin, 10% fetal calf serum and sodium bicarbonate).
(§3) The cell suspensions that were prepared and diluted according to the particular cell type and the expected target cell density (2.500-30.000 cells per well based on cell growth characteristics) were added by pipette (80 μl) into 96/well microtiter plates. Inoculates were allowed a pre-incubation period of 24 hours at 37° C. and 5% CO2 for stabilisation. Four-fold dilutions of the intended test concentration were added at time zero in 20 μl aliquots to the microtiter plate wells. Usually, test compound was evaluated at six 4-fold dilutions. […] All drug concentrations were examined in duplicates. Incubations of cells with the test compounds lasted for 72 hours at 37° C., in 5% CO2 atmosphere and 100% humidity. At the end of incubation period, the cells were assayed by using the Calcein AM. Ten microliters of the stock solution were pipetted into each well and incubated further for 1 hours. Fluorescence (FD) was measured with the Labsystem FIA Reader Fluoroscan Ascent (UK).

[2] = tested on: breast carcinoma cell line MCF-7; assay: Calcein AM cytotoxicity, MCF7; type: cell-based, human; settings: Homo sapiens, read-out: IC 50, MCF7
Source text: as §1, §2, §3

[3] = tested on: K-562; assay: Calcein AM cytotoxicity, K-562; type: cell-based; settings: Homo sapiens, K562, 72 h, read-out: IC 50, K-562
Source text: as §1, §2, §3

[4] = tested on: T-lymphoblastic leukemia cell line CEM; assay: Calcein AM cytotoxicity, CEM; type: cell-based, human
Source text: as §1, §2, §3

[5] = tested on: Amaranthus caudatus cotyledon/hypocotyl explants; assay: Amaranthus bioassay, betacyanin content; type: in vivo; settings: betacyanin content at the concentration with highest activity
Experimental: Standard Amaranthus bioassay was performed with several modifications. The seeds of Amaranthus caudatus var. atropurpurea were surface-sterilised in 10% N-chlorobenzenesulfonamide (w/v) for 10 min and washed 5 times in deionized water. They were placed in 14 cm Petri dishes containing paper tissues saturated with deionized water. After 72 h of cultivation at 25° C. in darkness, the roots of the seedlings were cut off. The explants, consisting of two cotyledons and hypocotyls, were placed in 5 cm Petri dishes on two layers of filter paper soaked in 1 ml of incubation medium containing 10 μmol NA2HPO4-KH2PO4, pH 6.8, 5 μmol tyrosine and the cytokinin to be tested. There were 20 explants per dish. The procedure was carried out under a green safe light in a darkroom. After a 48 h of incubation at 25° C. in darkness, betacyanin was extracted by freezing the explants in 4 ml […] acetic acid. The concentration of betacyanin was determined by comparing the absorbance at 537 nm and 620 nm as follows: ΔA=[…] nm-A620 nm. From the obtained data, the concentration with highest activity was selected for each compound tested. Relative activity of the compound at this concentration was calculated (Tab. 6). […] The values shown in table 8 are means of five replicates and the entire test was repeated twice. The cytokinins to be tested were dissolved in dimethylsulfoxide (DMSO) and the solution brought up to 10^-3M with distilled water. This stock was further diluted in the respective media used for the biotest to concentrations ranging from 10^-8M to 10^-4M.

[6] = tested on: Triticum aestivum cv. Hereward leaf tips; assay: Retention of chlorophyll in excised wheat leaf tips; type: in vivo; settings: chlorophyll retention at the concentration with highest activity
Experimental: Seeds of winter wheat, Triticum aestivum cv. Hereward, were washed under running water for 24 hours and then sown on vermiculite soaked with Knop's solution. They were placed in the grown chamber at 25° C. with a 16/8 h light period at 50 μmol.m^−2.s^−1. After 7 days, the first leaf was fully developed and the second leaf had started to grow. A tip section of the first leaf, approximately 35 mm long, was removed from 5 seedlings and trimmed slightly to a combined weight of 100 mg. The basal ends of the five leaf tips were placed in the wells of a microtiter polystyrene plate containing 150 μl of a cytokinin solution each. The entire plate was inserted into a plastic box lined with paper tissues soaked in distilled water to prevent leaf sections from drying out. After a 96 h incubation in the dark at 25° C., the leaves were removed and chlorophyll extracted by heating at 80° C. for 10 min in 5 ml of 80% ethanol (v/v). The sample volume was then restored to 5 ml by the addition of 80% ethanol (v/v). The absorbency of the extract was recorded at 665 nm. In addition, chlorophyll extracts from fresh leaves and leaf tips incubated in deionised water were measured. From the obtained data, the concentration with highest activity was selected for each compound tested. Relative activity of the compound at this concentration was calculated (Tab. 6). The activity obtained for 10^−4 M 6-benzylaminopurine (BAP) was postulated as 100%. The values shown are means of five replicates and the whole experiment was repeated twice. The cytokinins to be tested were dissolved in dimethylsulfoxide (DMSO) and the solution brought up to 10^−3M with distilled water. This stock was further diluted in distilled water to concentrations ranging from 10^−8M to 10^−4M.

[7] = tested on: tobacco callus Nicotiana tabacum L. cv. Wisconsin 38; assay: Cytokinin-dependent tobacco callus growth; type: cell-based; settings: fresh callus weight at the concentration with highest activity
Experimental: Cytokinin-dependent tobacco callus Nicotiana tabacum L. cv. Wisconsin 38 was maintained at 25° C. in darkness on modified Murashige-Skoog medium, containing per 1 liter: 4 μmol nicotinic acid, 2.4 μmol pyridoxine hydrochloride, 1.2 μmol thiamine, 26.6 μmol glycine, 1.37 μmol glutamine, 1.8 μmol myo-inositol, 30 g of sucrose, 8 g of agar, 5.37 μmol α-naphtylacetic acid (NAA) and 0.5 μmol benzylaminopurine (BAP). Subcultivation was carried out every three weeks. Fourteen days before the bioassay, the callus tissue was transferred to the media without 6-benzylaminopurine (BAP). Biological activity was determined from the increase in fresh callus weight after four weeks of cultivation. Five replicates were prepared for each cytokinin concentration and the entire test was repeated twice. From the obtained data, the concentration with highest activity was selected for each compound tested. Relative activity of the compound at this concentration was calculated (Tab. 6). The activity obtained for 10^−4 M 6-benzylaminopurine (BAP) was postulated as 100%. The cytokinins to be tested were dissolved in dimethylsulfoxide (DMSO) and the solution brought up to 10^−3M with distilled water. This stock was further diluted in the respective media used for the biotest to concentrations ranging from 10^−8M to 10^−4M.

[8] = tested on: HOS; assay: Calcein AM cytotoxicity, HOS; type: cell-based; settings: Homo sapiens, HOS, 72 h
Source text: as §1
Human T-lymphoblastic leukemia cell line CEM; promyelocytic HL-60 and monocytic U937 leukemias; breast carcinoma cell lines MCF-7, BT549, MDA-MB-231; glioblastoma U87MG cells; cervical carcinoma cells HELA; sarcoma cells U2OS and Saos2; hepatocellular carcinoma HepG2; mouse fibroblasts NIH3T3; mouse immortalized bone marrow macrophages B2.4 and B10A.4; P388D1 and L1210 leukemia; B16 and B16F10 melanomas were used for routine screening of compounds. The cells were maintained in Nunc/Corning 80 cm^2 plastic tissue culture flasks and cultured in cell culture medium (DMEM with 5 g/l glucose, 2 mM glutamine, 100 U/ml penicillin, 100 μg/ml streptomycin, 10% fetal calf serum and sodium bicarbonate).
The cell suspensions that were prepared and diluted according to the particular cell type and the expected target cell density (2.500-30.000 cells per well based on cell growth characteristics) were added by pipette (80 μl) into 96/well microtiter plates. Inoculates were allowed a pre-incubation period of 24 hours at 37° C. and 5% CO2 for stabilisation. Four-fold dilutions of the intended test concentration were added at time zero in 20 μl aliquots to the microtiter plate wells. Usually, test compound was evaluated at six 4-fold dilutions. In routine testing, the highest well concentration was […], but it can be the matter of change dependent on the agent. All drug concentrations were examined in duplicates. Incubations of cells with the test compounds lasted for 72 hours at 37° C., in 5% CO2 atmosphere and 100% humidity. At the end of incubation period, the cells were assayed by using the Calcein AM. Ten microliters of the stock solution were pipetted into each well and incubated further for 1 hours. Fluorescence (FD) was measured with the Labsystem FIA Reader Fluoroscan Ascent (UK). The tumour cell survival (GI50) was calculated using the following equitation: TCS═(FDdrug exposed well/mean FDcontrol wells)×100%. The GI50 value, the drug concentration lethal to 50% of the tumour cells, was calculated from the obtained dose response curves (FIG. 1).

[9] = tested on: Rosa hybrida (pot rose cultivar) explants; assay: In vitro and post vitro shoot multiplication and rooting of rose; type: in vivo
Experimental: The aim of this experiment was to test whether the new compounds are of practical use in tissue culture practice. The multiplication rate was investigated and the post vitro effects on rooting were examined. Rosa hybrida (pot rose cultivar) was cultured in 350 ml vessels with a screw on polycarbonate lid. Each culture vessel contained 100 ml autoclaved medium (120° C., 20 min). The cultures were maintained at 23±2° C. under a 16 h photoperiod at 40 μM m^−2 s^−1 PAR. The basal medium (BMR) contained Murashige and Skoog (1962) macroelements, microelements and vitamins, 95 μM NaFeEDTA, 555 μM myo-inositol, 111 mM sucrose, 1.332 mM glycine, 684 μM L-glutamine and 7 g/l agar. This medium was supplemented with 10 μM BA, mT, oMeOBAP or mMeOBAP (compound no. 14 and 15, respectively). The control medium didn't contain any cytokinin. After a culture period of 8 weeks, the number of induced shoots per explant was determined, as well as root number/explant and total root length/explant. The roots were removed and the explants (shoot clusters) were planted in unfertilised peat. After four weeks of acclimatising in a fog unit, root number and root length was determined.

[10] = Ex vitro, four weeks of acclimatising

Compound | IC50 ([1]; HL-60, 72 h) [µM] | IC50 ([2]; MCF7, 72 h) [µM] | IC50 [3] [µM] | IC50 ([4]; Homo sapiens, 72 h) [µM] | activity (%) [10^−5 mol · l^−1 BAP = 100%] [5] | Activity (%) [10^−4 mol · l^−1 BAP = 100%] [6] | Activity (%) [10^−4 mol · l^−1 BAP = 100%] [7] | also measured
Nc1ncnc2nc[nH]c12 [Adenine] | > 167 | > 167 | > 167 | > 167 | – | – | – | –
COc1cc(CNc2ncnc3nc[nH]c23)cc(OC)c1 [6-(3,5-dimethoxybenzylamino)purine] | > 167 | > 167 | > 167 | > 167 | 1.5 (±1) % | 16 (±1) % | – | –
C/C(=C\CNc1ncnc2[nH]cnc12)CO [Zeatin, reference compound] | – | – | – | – | – | – | – | IC50 ([1]; HL-60, 72 hours): > 167 µM; IC50 ([2]; MCF7, 72 hours): > 167 µM; IC50 ([4]; Homo sapiens, 72 hours): > 167 µM
Fc1ccc(CNc2ncnc3nc[nH]c23)c(F)c1F [6-(2,3,4-trifluorobenzylamino)purine] | > 167 | > 167 | > 167 | – | 94 (±3) % | 131 (±22) % | 76 (±4) % | –
O=[N+]([O-])c1cccc(CNc2ncnc3nc[nH]c23)c1 [6-(3-nitrobenzylamino)purine] | > 167 | > 167 | > 167 | > 167 | 66 (±7) % | 60 (±15) % | – | –
Clc1ccc(CNc2ncnc3nc[nH]c23)c(Cl)c1 [6-(2,4-dichlorobenzylamino)purine] | – | – | – | – | 19 (±8) % | 0% | 11 (±3) % | –
Fc1ccc(CNc2ncnc3nc[nH]c23)cc1 [6-(4-fluorobenzylamino)purine] | – | – | – | – | 44 (±4) % | 95.5 (±3.5) % | 122 (±12) % | IC50 [8]: > 167 µM
Fc1ccc(CNc2ncnc3nc[nH]c23)c(F)c1 [6-(2,4-difluorobenzylamino)purine] | > 167 | > 167 | > 167 | 140 | 88 (±7) % | 139 (±2) % | 95 (±1) % | IC50 ([4]; 72 hours, listed as 2,4diFBAP): 146 µM
COc1ccc(CNc2ncnc3nc[nH]c23)c(OC)c1 [6-(2,4-dimethoxybenzylamino)purine] | – | – | – | – | 12 (±2) % | 26 (±11) % | 21 (±5) % | –
Fc1cc(F)cc(CNc2ncnc3nc[nH]c23)c1 [6-(3,5-difluorobenzylamino)purine] | – | – | – | – | 108 (±2) % | 156 (±4) % | 97 (±3) % | –
COc1ccccc1CNc1ncnc2nc[nH]c12 [6-(2-methoxybenzylamino)purine] | – | – | – | – | 77 (±5) % | 269 (±12) % | 79 (±5) % | Root number per plant [9, 10]: 2.5; Total root length per plant [9, 10]: 8.5 cm; Flower number per explant ([9]; In vitro, 10 μM, 8 weeks): 0.29; Number of new shoots per explant ([9]; In vitro, 10 μM, 8 weeks): 1.0; Root number per explant ([9]; In vitro, 10 μM, 8 weeks): 0.0; Total root length per explant ([9]; In vitro, 10 μM, 8 weeks): 0.0 cm; IC50 [8]: > 167 µM
